# pIC50: −log10 of the molar value.
# System: AsPC-1 cells
# Assay: phospho-ERK HTRF assay in AsPC-1 cells, 4 h treatment
# Type: cell-based
# Conditions: Homo sapiens, ASPC1; AsPC-1, 4H; Table 1a class column; read-out: pERK IC50 activity range (*)
row,SMILES,pIC50
1,"CON(C)C(=O)c1nn2c(c1C)CN(c1nc(OC[C@@]34CCCN3C/C(=C\F)C4)nc3c1COC(c1cc(N)cc(Cl)c1C(F)(F)F)C3)CCC2 (stereo partly drawn) [compound 450, 5-(7-(5-amino-3-chloro-2-(trifluoromethyl)phenyl)-2-(((S,Z)-2-(fluoromethylene)tetrahydro-1H-pyrrolizin-7a(5H)-yl)methoxy)-7,8-dihydro-5H-pyrano[4,3-d]pyrimidin-4-yl)-N-methoxy-N,3-dimethyl-5,6,7,8-tetrahydro-4H-pyrazolo[1,5-a][1,4]diazepine-2-carboxamide]",7.52 to 8.00
2,CON(C)C(=O)c1nn2c(c1Cl)CN(c1nc(OC[C@]34CCCN3C[C@@H](C=C(F)F)C4)nc3c1COC(c1cc(N)cc(Cl)c1C(F)(F)F)C3)CCC2 (some centres unmarked) [compound 451],7.52 to 8.00
3,CON(C)C(=O)c1nn2c(c1Cl)CN(c1nc(OC[C@@]34CCCN3C[C@H](F)C4)nc3c1COC(c1cc(N)cc(Cl)c1C(F)(F)F)C3)CCC2 (some centres unmarked) [compound 452],7.52 to 8.00
4,CON(C)C(=O)c1nn2c(c1Cl)CN(c1nc(OC[C@@]34CCCN3CC(=C(F)F)C4)nc3c1COC(c1c(F)c(N)cc(Cl)c1C(F)(F)F)C3)CCC2 (some centres unmarked) [compound 454],7.52 to 8.00
5,CON(C)C(=O)c1nn2c(c1Cl)CN(c1nc(OC[C@@]34CCCN3C/C(=C\F)C4)nc3c1COC(c1c(F)c(N)cc(Cl)c1C(F)(F)F)C3)CCC2 (some centres unmarked) [compound 463],7.52 to 8.00
6,"CON(C)C(=O)c1nn2c(c1Cl)CN(c1nc(OC[C@@]34CCCN3C[C@H](F)C4)nc3c1COC(c1c(F)c(N)cc(C)c1C(F)(F)F)C3)CCC2 (stereo partly drawn) [compound 464, 5-(2-{[(2R,7aS)-2-fluoro-hexahydropyrrolizin-7a-yl]methoxy}-7-[3-amino-2-fluoro-5-methyl-6-(trifluoromethyl)phenyl]-5H,7H,8H-pyrano[4,3-d]pyrimidin-4-yl)-3-chloro-N-methoxy-N-methyl-4H,6H,7H,8H-pyrazolo[1,5-a][1,4]diazepine-2-carboxamide]",7.52 to 8.00

# Same assay, conditions: Homo sapiens, ASPC1; AsPC-1, 4h; Table 1b; read-out: PERK IC50 (AsPC-1, 4h)
row,SMILES,pIC50
1,CN(C)C(=O)c1nn2c(c1Cl)CN(c1nc(OC[C@]34CCCN3C[C@@H](C=C(F)F)C4)nc3c1CO[C@H](c1cc(N)cc(Cl)c1C(F)(F)F)C3)CCC2 [compound 456],> 8.00
2,C[C@@]1(O)COCCN(c2nc(OC[C@]34CCCN3C[C@@H](C=C(F)F)C4)nc3c2CO[C@H](c2cc(N)cc(Cl)c2C(F)(F)F)C3)C1 [compound 457],> 8.00
3,Cc1c(C(=O)N(C)C)nn2c1CN(c1nc(OC[C@]34CCCN3C[C@@H](C=C(F)F)C4)nc3c1CO[C@H](c1c(F)c(N)cc(Cl)c1C(F)(F)F)C3)CCC2 [compound 458],> 8.00
4,CN(C)C(=O)c1nn2c(c1Cl)CN(c1nc(OC[C@]34CCCN3C[C@@H](C=C(F)F)C4)nc3c1CO[C@H](c1c(F)c(N)cc(Cl)c1C(F)(F)F)C3)CCC2 [compound 459],> 8.00
5,CN(C)C(=O)c1nn2c(c1Cl)CN(c1nc(OC[C@]34CCCN3C[C@@H](C=C(F)F)C4)nc3c1COC(c1c(F)c(N)cc(Cl)c1C(F)(F)F)C3)CCC2 (some centres unmarked) [compound 460],> 8.00
6,CON(C)C(=O)c1nn2c(c1Cl)CN(c1nc(OC[C@@]34CCCN3C/C(=C\F)C4)nc3c1CO[C@H](c1c(F)c(N)cc(Cl)c1C(F)(F)F)C3)CCC2 [compound 461],> 8.00

# Same assay, conditions: Homo sapiens, ASPC1; Table 3; read-out: pERK Inhibition AsPC-1 IC50
row,SMILES,pIC50
1,"CN(C)C(=O)c1nn2c(c1Cl)CN(c1nc(OC[C@@]34CCCN3C[C@H](F)C4)nc3c1CO[C@H](c1c(C(F)(F)F)ccc(N)c1F)C3)CCC2 (single isomer, unassigned) [Example 1]",7.89

# System: SW-620
# Assay: phospho-ERK HTRF assay in SW-620 cells, 4 h treatment
# Type: cell-based
# Conditions: Homo sapiens, Table 3, read-out: pERK Inhibition SW-620 IC50
row,SMILES,pIC50
1,"CN(C)C(=O)c1nn2c(c1Cl)CN(c1nc(OC[C@@]34CCCN3C[C@H](F)C4)nc3c1CO[C@H](c1c(C(F)(F)F)ccc(N)c1F)C3)CCC2 (single isomer, unassigned) [Example 1]",7.84

# Source: patent US20260224589A1 (priority 2023, published 2026)
